In article PMC12186263, “Molecular Basis for Peptide Nitration by a Novel Cytochrome P450 Enzyme in RiPP Biosynthesis” (ACS Catalysis, 2025):
Square brackets hold non-standard residues; d marks the D form. Ends that are not written are not given here. Peptide text beside a SMILES is read from it. Nle = CCCC[C@H](N)C(=O)O

Legend:
[1] = molecular target: T1, RufO (Streptomyces atratus, UniProt A0A224AU14); experiment: Isothermal titration calorimetry, peptide into RufO; assay type: binding; conditions: ITC, 20 °C, 190 μM RufO, 50 mM Tris-HCl, 100 mM NaCl pH 7.5, one set of sites, control subtracted
T1 construct: made in house
T1 sequence (A0A224AU14 1-394): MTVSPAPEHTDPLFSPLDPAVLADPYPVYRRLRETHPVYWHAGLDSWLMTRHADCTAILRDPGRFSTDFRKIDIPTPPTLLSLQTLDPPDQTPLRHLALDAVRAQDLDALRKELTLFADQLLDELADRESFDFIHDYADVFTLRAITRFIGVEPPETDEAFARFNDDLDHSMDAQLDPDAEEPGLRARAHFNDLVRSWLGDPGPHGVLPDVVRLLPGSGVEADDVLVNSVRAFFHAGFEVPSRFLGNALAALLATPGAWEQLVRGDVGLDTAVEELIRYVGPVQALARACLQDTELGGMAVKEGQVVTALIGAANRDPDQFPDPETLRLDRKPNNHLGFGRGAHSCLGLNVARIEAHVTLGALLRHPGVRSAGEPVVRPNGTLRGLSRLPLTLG
Description: ITC experiments were conducted at 20 °C using a MicroCal PEAQ-ITC instrument (Malvern Panalytical). RufO was prepared in a buffer containing 50 mM Tris-HCl and 100 mM NaCl at pH 7.5. The reference cell was filled with water. Each experiment involved 190 μM RufO in the sample cell, titrated with either 2.5 mM MRYLH or 2.8 mM Nle-RYLH in the syringe. Control experiments replaced the protein in the cell with buffer. The titration protocol included an initial 0.4 μL injection (excluded from analysis), followed by 19 injections of 2 μL at 2.5 min intervals. The cell was continuously stirred at 750 rpm. Data analysis was conducted using MicroCal PEAQ-ITC Analysis Software, with heats of dilution determined from the plateau region of the thermograms and subtracted from each integrated peak. All titrations are baseline corrected. The final integrated enthalpic changes were obtained by subtracting the controls from the protein-peptide titrations and fitted to a “one set of sites” binding model.

[2] = molecular target: T1, RufO; experiment: X-band cw EPR of RufO with peptide; assay type: binding; conditions: 100 μM RufO, 2 mM peptide, 10 K; double-integrated intensities
Description: 3 Spectroscopic characterization of the RufO heme center with and without peptide substrates. (A) X-band continuous wave EPR spectra of RufO (black), RufO with 2 mM MRYLH (red), and RufO with 2 mM Nle-RYLH (blue), measured at 10 K and 1 mW microwave power. The minor species marked by asterisks likely arise from conformational heterogeneity of the heme center or a freezing artifact. (B) rR spectra of RufO (top), RufO with 2 mM MRYLH (middle), and RufO with 2 mM Nle-RYLH (bottom). The spectra were collected using a 405 nm excitation laser at 5 mW. (C) rR spectra of CO adducts of ferrous RufO (top) and ferrous RufO with 2 mM Nle-RYLH (bottom). Spectra were collected using a 442 nm excitation line at 1 mW. (D) Backbonding correlations between v(Fe–C) and v(C–O) stretching frequencies for various CYPs in the absence (squares) and presence (circles) of ligands. […]
EPR samples were prepared by mixing 100 μM RufO in the same buffer with 5% glycerol and either 2 mM MRYLH or Nle-RYLH, followed by flash-freezing in 4 mm quartz EPR tubes. […] Each sample was measured at 9.35 GHz microwave frequency at 10 K using 1 mW microwave power. All spectra were recorded with four averaged scans using an ER4119HS resonator at a modulation frequency of 100 kHz and a modulation amplitude of 0.4 mT. The conversion rate of the low-spin species was determined by comparing the double-integrated intensities of the signals. […]

[3] = molecular target: T1, RufO; experiment: RufO nitration activity assay (HPLC); assay type: biochemical; conditions: 20 μM RufO, 1 mM peptide, SpFdX/SpFdR, pH 8.0, 25 °C, 30 min; highest rate set as 100%; triplicate
Description: Each assay was performed in triplicate and contained 20 μM CYP enzyme, 80 μM ferredoxin, 40 μM reductase, 1 mM substrate, 1 mM NADH/NADPH, 1 mM DEA NONOate (≥98%, Cayman Chemical), and 132 μL O2-saturated buffer (50 mM Tris, 100 mM NaCl at pH 8.0, bubbled for 30 min) for a final reaction volume of 200 μL. Reactions with CPR in place of the ferredoxin/reductase system contained 40 μM CPR. Reactions were incubated at 25 °C with shaking at 300 rpm for 30 min, then filtered using a 10 kDa cutoff centrifugal filter (Millipore) and analyzed by HPLC. Filtrate was analyzed on an InertSustain C18 column (5 μm particle size, 4.6 mm × 100 mm, GL Sciences Inc.) on a Thermo Fisher Scientific Ultimate-3000SD HPLC rapid separation system equipped with a photodiode array detector. The flow rate was set at 1 mL/min. For RufO assays, solvent A was water and solvent B was 90% acetonitrile (ACN) in water with 0.1% trifluoroacetic acid (TFA). A gradient of 0–70% solvent B was applied over 15 min. For collection of peptide product peaks for mass spectrometry analysis, TFA in solvent B was replaced with formic acid (FA). The method for TxtE assays used water with 0.1% FA as solvent A and ACN with 0.1% FA as solvent B. A gradient of 0–20% solvent B was applied over 10 min, followed by a 5 min hold at 20% solvent B. All presented traces were monitored at an absorbance wavelength of 280 nm. […]

[4] = molecular target: T2, TxtE (Streptomyces scabiei, UniProt C9ZDC6); experiment: Resonance Raman of TxtE with Trp; assay type: binding; conditions: 100 μM TxtE, 1 mM Trp
T2 sequence (C9ZDC6 1-406): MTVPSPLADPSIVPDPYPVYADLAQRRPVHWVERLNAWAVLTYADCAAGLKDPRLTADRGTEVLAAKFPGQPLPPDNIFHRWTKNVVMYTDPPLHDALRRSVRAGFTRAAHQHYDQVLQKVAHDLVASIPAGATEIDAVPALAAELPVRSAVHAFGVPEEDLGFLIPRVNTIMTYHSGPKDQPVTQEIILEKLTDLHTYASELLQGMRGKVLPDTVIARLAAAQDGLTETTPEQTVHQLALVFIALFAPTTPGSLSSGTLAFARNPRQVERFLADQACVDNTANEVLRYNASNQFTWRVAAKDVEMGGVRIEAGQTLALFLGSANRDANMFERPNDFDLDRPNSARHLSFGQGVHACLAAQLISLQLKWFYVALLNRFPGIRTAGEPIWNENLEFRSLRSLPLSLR
Description: All rR measurements were carried out in 180° backscattering geometry, with scattered light focused by a cylindrical lens (Nikon). The beam passed through a 405 nm notch filter (Thorlabs) for ferric samples or a 442 nm notch filter (Iridian) for ferrous-CO samples, before entering an iHR550 spectrometer (Horiba Scientific). The spectrometer was configured with a 120-μm entrance slit and a 1200 grooves/mm grating (estimated spectral resolution of 10 cm^–1) for ferric samples, or a 350-μm slit and 2400 grooves/mm grating (estimated spectral resolution of 10 cm^–1) for ferrous-CO samples, with detection by a liquid nitrogen-cooled Symphony CCD detector (Horiba Scientific). The accuracy of absolute frequencies is about ±1 cm^–1 based on duplicated measurements. Measurements were conducted at room temperature in 5 mm NMR tubes constantly spinning to prevent local heating and protein degradation. The acquisition times for ferric and CO-bound samples were set to 40 min and 2 h, respectively. UV–vis spectra were recorded before and after the measurements to ensure no photodegradation occurred. rR spectra were calibrated with fenchone (for all samples) and acetone-d 6 (for ferrous-CO samples in high-frequency regions) and processed using GRAMS/AI software (ThermoFisher).
(§1) Figure S1. Spectroscopic and ITC analysis of substrate binding in TxtE
(§2) (A) UV-vis spectra of 2 μM TxtE in the absence (black trace) and presence (red trace) of 0.5 mM
(§3) Trp; (B) ITC experiment of Trp titration to TxtE.
(§4) power observed with successive injections of 2 mM Trp to 50 μM TxtE after baseline correction.
(§5) consistent with a single binding site (red line). (C) Resonance Raman spectra of 100 μM TxtE in
(§6) the absence (top) and presence (bottom) of 1 mM Trp.
(§7) (1 picture or pasted object on this page, not shown here)

[5] = molecular target: T2, TxtE; experiment: UV-vis of TxtE with Trp; assay type: binding; conditions: 2 μM TxtE, 0.5 mM Trp
Description: as §1, §2
Trp; (B) ITC experiment of Trp titration to TxtE. […]
as §7

[6] = molecular target: T2, TxtE; experiment: ITC of Trp titration to TxtE; assay type: binding; conditions: 2 mM Trp into 50 μM TxtE
Description: as §1, §2, §3, §4, §5, §6, §7

[7] = test system: ferrous RufO; experiment: Stopped-flow transient kinetics of O2 and •NO binding to ferrous RufO; conditions: 4 °C; for association rate constant k1: 3.3 μM ferrous RufO, pH 8.0, linear fit
Description: 5 Transient kinetics of ferrous RufO binding to O2 and ^•NO. Spectral changes following the rapid mixing of 3.3 μM ferrous RufO bound to MRYLH with (A) 18 μM O2 and (C) 70 μM ^•NO over 0.2 s. The black-to-red spectral transitions represent the formation of (A) a ferric-superoxo intermediate and (C) a ferrous-nitrosyl complex. Insets show the time-dependent absorbance changes at 438 nm (the most pronounced shift), fitted using single exponential equations to determine rate constants (red trace). Dependence of rate constant as a function of gas concentration on (B) O2 and (D) ^•NO binding to ferrous RufO alone (blue) and peptide-bound RufO (red). Second-order rate constants were determined through linear fitting. TEXT PRINTED IN THE PICTURE: (A) + O2: kobs = 74.3 s^-1 | (B) RufO alone: k1 = 3.55 μM^-1 s^-1 | (B) peptide-bound: k1 = 3.83 μM^-1 s^-1 | (C) + •NO: kobs = 107.4 s^-1 | (D) RufO alone: k1 = 4.12 μM^-1 s^-1 | (D) peptide-bound: k1 = 2.35 μM^-1 s^-1
Stopped-flow spectroscopic data were collected using an Applied Photophysics SX20 stopped-flow system equipped with a photodiode array detector. The system was maintained in an anaerobic chamber (O2 < 1 ppm) and all sample preparation was done anaerobically. Measurements were performed at 4 °C. All samples were prepared in a buffer containing 50 mM Tris-HCl and 100 mM NaCl, pH 8.0. RufO was prereduced with a minimal amount of sodium dithionite. The final mixed concentrations of RufO and MRYLH (where applicable) were 3.3 and 24 μM, respectively. Solutions of varying O2 concentrations were prepared by diluting air-saturated buffer with anaerobic buffer. The concentrations of O2 in the air-saturated buffer were measured with an Oxygraph+ oxygen electrode (Hansatech). To generate ^•NO-containing solutions, 0.5 mM DEA NONOate (≥98%, Cayman Chemical) was incubated in anaerobic buffer for 4 h to ensure complete ^•NO release. The ^•NO concentrations were quantified based on a hemoglobin assay, and further dilutions were made with anaerobic buffer immediately prior to mixing. Experimental data were analyzed by the ProK software package from Applied Photophysics. The second-order rate constants were obtained from linear fitting, with the resulting equations: y = 3.55x + 54.4 for the mixing of RufO with O2, y = 3.83x + 6.5 for the ES complex with O2, y = 4.12x −158.0 for RufO with ^•NO, and y = 2.35x – 58.9 for the ES complex with ^•NO.
Figure S9. Transient kinetics of ferrous RufO alone binding to O2 and •NO Spectral changes following the rapid mixing of 3.3 μM ferrous RufO with (A) 18 μM O 2 and […] superoxo intermediate and (B) a ferrous-nitrosyl complex. Insets show the time-dependent absorbance changes at 438 nm (the most pronounced shift), fitted using first-order exponential equations to determine rate constants (red trace).
as §7

[8] = molecular target: T3, MRYLH pentapeptide (RufO substrate) (Streptomyces atratus); experiment: ITC
T3 chain: MRYLH

Molecule: CCCC[C@H](N)C(=O)N[C@@H](CCCNC(=N)N)C(=O)N[C@@H](Cc1ccc(O)cc1)C(=O)N[C@@H](CC(C)C)C(=O)N[C@@H](Cc1c[nH]cn1)C(=O)O [Nle-RYLH] (H-[Nle]RYLH-OH)
- Kd [1]: 1600 nM
- conversion of original low-spin species to new low-spin species [2]: 84%
- conversion rate (normalized) [3]: 100%

Molecule: N[C@@H](Cc1c[nH]c2ccccc12)C(=O)O [Trp, L-tryptophan]
- low-spin ν10 (1640 cm^–1), in words [4]: disappearance
- ν4 on Trp binding ([4]; initially 1374 cm^–1): 1373 cm^–1
- ν3 on Trp binding ([4]; initially 1504 cm^–1, six- to five-coordinate high-spin conversion): 1488 cm^–1
- ν2 on Trp binding ([4]; initially 1588 cm^–1): 1570 cm^–1
- Soret band position on substrate binding [5]: 390 nm
- ΔS, in words [6]: negative ΔS
- Kd ([6]; single binding site): 16000 nM
- ΔH ([6]; single binding site, exothermic): -14.6 kcal/mol

Molecule: MRYLH [MRYLH]
- Kd [1]: 780 ± 300 nM
- conversion of original low-spin species to new low-spin species [2]: 84%

Molecule: nitric oxide [•NO]
- kobs ([7]; MRYLH-bound ferrous RufO 3.3 μM, 70 μM •NO, 438 nm, single exponential): 107.4 s⁻¹
- association rate constant k1 ([7]; MRYLH-bound, 24 μM MRYLH): 2.35 μM^–1 s^–1
- association rate constant k1 ([7]; RufO alone): 4.12 μM^–1 s^–1
- •NO concentration below which nitrosyl complex not detectable ([7]; RufO alone): < 50 µM
- •NO concentration below which nitrosyl complex not detectable ([7]; peptide-bound RufO): < 70 µM

B1: RufO (protein)
chain: T1 sequence (A0A224AU14 1-394)
- Kd [8]: 780 nM
